In ChEMBL document CHEMBL1145420, “On sampling of fragment space” (J Med Chem, 2007):

Tests used:
[1] = target: Dipeptidyl peptidase 8 (Homo sapiens) (UniProt Q6V1X1); assay: Inhibition of DPP8
[2] = target: Dipeptidyl peptidase 9 (Homo sapiens) (UniProt Q86TI2); assay: Inhibition of DPP9
[3] = target: Dipeptidyl peptidase 2 (Homo sapiens) (UniProt Q9UHL4); assay: Inhibition of QPP
[4] = target: T1, Prolyl endopeptidase (Homo sapiens) (UniProt P48147); assay: Inhibition of PEP
T1 sequence (whole entry): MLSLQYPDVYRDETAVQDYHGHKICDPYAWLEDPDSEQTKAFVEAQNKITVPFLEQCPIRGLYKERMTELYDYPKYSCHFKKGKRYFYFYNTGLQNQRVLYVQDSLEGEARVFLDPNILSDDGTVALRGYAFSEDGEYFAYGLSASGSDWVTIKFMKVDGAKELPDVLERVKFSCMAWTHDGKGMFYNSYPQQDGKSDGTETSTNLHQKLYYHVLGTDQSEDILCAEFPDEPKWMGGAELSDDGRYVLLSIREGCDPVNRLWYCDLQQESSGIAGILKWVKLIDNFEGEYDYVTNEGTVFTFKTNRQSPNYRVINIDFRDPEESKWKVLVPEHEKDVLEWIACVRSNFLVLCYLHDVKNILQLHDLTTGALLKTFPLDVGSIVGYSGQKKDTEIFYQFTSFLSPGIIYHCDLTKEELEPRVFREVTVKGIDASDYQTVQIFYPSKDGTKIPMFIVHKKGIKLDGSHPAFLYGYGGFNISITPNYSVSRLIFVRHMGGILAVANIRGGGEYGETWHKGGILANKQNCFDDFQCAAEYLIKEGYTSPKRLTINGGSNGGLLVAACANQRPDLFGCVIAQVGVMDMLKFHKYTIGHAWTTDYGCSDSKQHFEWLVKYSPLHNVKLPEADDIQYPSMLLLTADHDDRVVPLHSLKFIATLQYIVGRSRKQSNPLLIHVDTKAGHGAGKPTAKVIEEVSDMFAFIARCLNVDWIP

[5] = target: Prolyl endopeptidase FAP (Homo sapiens) (UniProt Q12884); assay: Inhibition of FAP
Sequence of Prolyl endopeptidase FAP (Homo sapiens) (Q12884 whole entry): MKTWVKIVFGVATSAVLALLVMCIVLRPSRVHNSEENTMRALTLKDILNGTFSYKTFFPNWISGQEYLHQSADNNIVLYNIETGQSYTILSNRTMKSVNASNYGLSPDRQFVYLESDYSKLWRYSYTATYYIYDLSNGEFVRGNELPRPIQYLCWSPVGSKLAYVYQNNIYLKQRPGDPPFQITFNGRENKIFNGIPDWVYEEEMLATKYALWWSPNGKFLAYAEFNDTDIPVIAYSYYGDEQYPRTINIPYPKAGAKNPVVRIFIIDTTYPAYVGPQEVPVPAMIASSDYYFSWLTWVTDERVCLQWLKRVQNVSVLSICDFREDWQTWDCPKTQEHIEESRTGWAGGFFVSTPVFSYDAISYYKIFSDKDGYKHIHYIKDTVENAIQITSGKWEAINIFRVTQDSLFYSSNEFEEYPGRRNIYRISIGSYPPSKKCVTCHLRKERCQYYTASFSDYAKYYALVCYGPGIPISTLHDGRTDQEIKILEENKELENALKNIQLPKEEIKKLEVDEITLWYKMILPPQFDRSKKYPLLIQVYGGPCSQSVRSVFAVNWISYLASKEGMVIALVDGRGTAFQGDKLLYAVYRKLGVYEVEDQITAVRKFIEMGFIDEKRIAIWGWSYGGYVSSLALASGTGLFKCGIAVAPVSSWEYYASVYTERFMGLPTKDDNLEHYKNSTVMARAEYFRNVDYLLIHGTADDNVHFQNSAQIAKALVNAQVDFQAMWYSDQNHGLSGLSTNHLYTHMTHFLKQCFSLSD

Sequence of Dipeptidyl peptidase 9 (Homo sapiens) (Q86TI2 2-863 limits assumed): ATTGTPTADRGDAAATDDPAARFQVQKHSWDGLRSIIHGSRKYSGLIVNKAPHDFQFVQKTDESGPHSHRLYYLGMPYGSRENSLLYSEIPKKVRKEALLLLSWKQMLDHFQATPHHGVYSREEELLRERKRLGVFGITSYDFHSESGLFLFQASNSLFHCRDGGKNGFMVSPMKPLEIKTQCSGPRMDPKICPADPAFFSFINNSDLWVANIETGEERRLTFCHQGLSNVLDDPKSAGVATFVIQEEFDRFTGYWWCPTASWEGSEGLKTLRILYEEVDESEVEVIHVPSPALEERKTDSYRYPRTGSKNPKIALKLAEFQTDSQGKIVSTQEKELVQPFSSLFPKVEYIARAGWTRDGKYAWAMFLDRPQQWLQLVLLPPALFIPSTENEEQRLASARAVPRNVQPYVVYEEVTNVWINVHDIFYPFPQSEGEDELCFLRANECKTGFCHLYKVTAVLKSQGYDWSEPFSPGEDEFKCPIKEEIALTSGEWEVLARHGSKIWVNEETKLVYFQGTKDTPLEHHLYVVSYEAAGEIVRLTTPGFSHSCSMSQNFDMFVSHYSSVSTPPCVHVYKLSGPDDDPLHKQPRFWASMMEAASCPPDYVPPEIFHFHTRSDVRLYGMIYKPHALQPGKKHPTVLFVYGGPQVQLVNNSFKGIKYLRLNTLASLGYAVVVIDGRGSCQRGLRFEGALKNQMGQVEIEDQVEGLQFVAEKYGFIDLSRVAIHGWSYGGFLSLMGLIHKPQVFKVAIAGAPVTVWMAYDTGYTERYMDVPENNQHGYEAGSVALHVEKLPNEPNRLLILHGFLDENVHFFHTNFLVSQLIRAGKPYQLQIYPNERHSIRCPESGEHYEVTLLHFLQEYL
Sequence of Dipeptidyl peptidase 8 (Homo sapiens) (Q6V1X1 whole entry, looked up): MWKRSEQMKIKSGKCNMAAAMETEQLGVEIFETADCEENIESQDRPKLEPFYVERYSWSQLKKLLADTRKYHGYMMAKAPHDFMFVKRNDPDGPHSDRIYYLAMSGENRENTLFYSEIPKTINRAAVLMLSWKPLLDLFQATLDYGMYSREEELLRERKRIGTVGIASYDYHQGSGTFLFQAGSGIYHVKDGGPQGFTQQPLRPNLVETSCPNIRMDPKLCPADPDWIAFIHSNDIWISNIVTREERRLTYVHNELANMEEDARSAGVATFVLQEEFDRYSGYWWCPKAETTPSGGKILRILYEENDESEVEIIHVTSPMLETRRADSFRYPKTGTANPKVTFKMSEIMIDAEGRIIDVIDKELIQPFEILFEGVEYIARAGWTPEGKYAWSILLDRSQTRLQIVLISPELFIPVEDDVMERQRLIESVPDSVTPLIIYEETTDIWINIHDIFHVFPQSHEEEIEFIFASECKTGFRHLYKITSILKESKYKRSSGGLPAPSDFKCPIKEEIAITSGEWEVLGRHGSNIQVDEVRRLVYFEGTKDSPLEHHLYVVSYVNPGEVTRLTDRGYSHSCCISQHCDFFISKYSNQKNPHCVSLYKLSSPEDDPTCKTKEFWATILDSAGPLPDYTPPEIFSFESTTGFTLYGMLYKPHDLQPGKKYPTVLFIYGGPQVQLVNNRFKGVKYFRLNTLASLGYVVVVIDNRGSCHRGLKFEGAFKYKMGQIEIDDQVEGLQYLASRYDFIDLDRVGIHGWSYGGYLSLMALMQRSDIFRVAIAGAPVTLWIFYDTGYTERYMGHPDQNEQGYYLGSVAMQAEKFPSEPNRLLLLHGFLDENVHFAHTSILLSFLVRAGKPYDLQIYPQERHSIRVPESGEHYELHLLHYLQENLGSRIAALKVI

Activity [1] [µM]	Activity [2] [µM]	Activity [3] [µM]	Activity [4] [µM]	Activity [5] [µM]	SMILES
> 10	> 100	66	–	–	N[C@@H](CC(=O)N1CCC[C@H]1C(=O)NCc1cc(Cl)ccc1OCC(=O)NC1CC1)Cc1ccccc1
460	> 1000	680	> 1000	> 1000	CNC(=O)C[C@H](N)Cc1ccccc1
